Laboratory results from patent US9695155B2, “Herbicidal substituted pyrimidinyloxy benzene compounds” (E. I. DU PONT DE NEMOURS AND COMPANY, priority 2013, dated 2017).

Key:
pigweed [1] = assay: Test A postemergence; format: in vivo, Amaranthus retroflexus; conditions: 0 to 100 scale where 0 is no effect and 100 is complete control
Procedure, shortened: (§1)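 Visual injury scored 0–100 (100 = complete control) against untreated controls about 10 days after treatment in a greenhouse. Test chemicals, formulated with surfactant in non-phytotoxic solvent, were sprayed on soil preemergence or on 2-10 cm, one- to two-leaf plants postemergence.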

pigweed [2] = assay: Test C postemergence; format: in vivo, Amaranthus retroflexus; conditions: for Plant response rating (0 to 100), Pigweed: postemergence; for Plant response rating, Pigweed: Postemergence, scale 0 to 100 (0 no effect, 100 complete control)
Procedure, shortened: (§2)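 Rated visually on 0–100 (100 = complete control) after 13–15 days under glass. Treatments went onto freshly seeded loam/sand soil or onto emerged plants at the 1- to 4-leaf stage, using a surfactant-containing solvent formulation.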

wheat [3] = assay: Test A postemergence; format: in vivo, Triticum aestivum; conditions: 0 to 100 scale where 0 is no effect and 100 is complete control
Procedure, shortened: as §1

corn [4] = assay: Test A preemergence; format: in vivo, Zea mays
Procedure, shortened: as §1

rice = assay: Test B flooded paddy test; format: in vivo, Oryza sativa; conditions: Flood, 250 g ai/ha; 0 to 100 scale where 0 is no effect and 100 is complete control
Procedure, shortened: (§3)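 Post-emergence paddy-water application at the 2-leaf stage, with 3 cm flood kept for the whole test. Response was judged visually relative to controls after 13 to 15 greenhouse days, 0 indicating no effect and 100 complete control.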

pigweed [5] = assay: Test A preemergence; format: in vivo, Amaranthus retroflexus
Procedure, shortened: as §1

sedge, umbrella = assay: Test B flooded paddy test; format: in vivo, Cyperus difformis; conditions: Flood, 250 g ai/ha; 0 to 100 scale where 0 is no effect and 100 is complete control
Procedure, shortened: as §3

velvetleaf = assay: Test C postemergence; format: in vivo, Abutilon theophrasti; conditions: for Plant response rating (0 to 100), Velvetleaf: postemergence; for Plant response rating, Velvetleaf: Postemergence, scale 0 to 100 (0 no effect, 100 complete control)
Procedure, shortened: as §2

galium = assay: Test C postemergence; format: in vivo, Galium aparine; conditions: for Plant response rating (0 to 100), Galium: postemergence; for Plant response rating, Galium: Postemergence, scale 0 to 100 (0 no effect, 100 complete control)
Procedure, shortened: as §2

wheat [6] = assay: Test A preemergence; format: in vivo, Triticum aestivum
Procedure, shortened: as §1

Heteranthera limosa = assay: Test B flooded paddy test; format: in vivo; conditions: Flood, 250 g ai/ha; 0 to 100 scale where 0 is no effect and 100 is complete control
Procedure, shortened: as §3

barnyardgrass [7] = assay: Test A preemergence; format: in vivo, Echinochloa crus-galli
Procedure, shortened: as §1

kochia = assay: Test C postemergence; format: in vivo, Kochia scoparia; conditions: for Plant response rating (0 to 100), Kochia: postemergence; for Plant response rating, Kochia: Postemergence, scale 0 to 100 (0 no effect, 100 complete control)
Procedure, shortened: as §2

barnyardgrass [8] = assay: Test A postemergence; format: in vivo, Echinochloa crus-galli
Procedure, shortened: as §1

corn [9] = assay: Test A postemergence; format: in vivo, Zea mays
Procedure, shortened: as §1

giant foxtail = assay: Test A postemergence; format: in vivo, Setaria faberii; conditions: 0 to 100 scale where 0 is no effect and 100 is complete control
Procedure, shortened: as §1

barnyardgrass [10] = assay: Test C postemergence; format: in vivo, Echinochloa crus-galli; conditions: for Plant response rating (0 to 100), Barnyardgrass: postemergence; for Plant response rating, Barnyardgrass: Postemergence, scale 0 to 100 (0 no effect, 100 complete control)
Procedure, shortened: as §2

[11] = 125 g ai/ha, 0 to 100 scale where 0 is no effect and 100 is complete control
[12] = 500 g ai/ha, 0 to 100 scale, 0 no effect, 100 complete control, approx. 10 days
[13] = 500 g ai/ha, 0 to 100 scale, 0 no effect, 100 complete control

Compound: N#Cc1cccc(Oc2ncc(Cl)cn2)c1-n1cc(Cl)cn1 [Compound 72]
- Plant response rating, Pigweed (pigweed [1]; 125 g ai/ha): 100
- Plant response rating, Pigweed (pigweed [1]; 500 g ai/ha): 100
- Plant response rating (0 to 100), Pigweed (pigweed [2]; 125 g ai/ha): 85
- Plant response rating (0 to 100), Pigweed (pigweed [2]; 250 g ai/ha): 95
- Plant response rating, Pigweed (pigweed [2]; 31 g ai/ha, 13 to 15 days): 70
- Plant response rating, Pigweed (pigweed [2]; 62 g ai/ha): 80
- Plant response rating, Wheat (wheat [3]; 125 g ai/ha): 20
- Plant response rating, Wheat (wheat [3]; 500 g ai/ha): 50
- Plant response rating, Corn (corn [4]; [11]): 30
- Corn plant response rating (corn [4]; [12]): 50
- Plant response rating, Rice (rice): 0
- Plant response rating, Pigweed (pigweed [5]; [11]): 100
- Pigweed plant response rating (pigweed [5]; [12]): 100
- Plant response rating, Sedge, Umbrella (sedge, umbrella): 85
- Plant response rating (0 to 100), Velvetleaf (velvetleaf; 125 g ai/ha): 55
- Plant response rating (0 to 100), Velvetleaf (velvetleaf; 250 g ai/ha): 75
- Plant response rating, Velvetleaf (velvetleaf; 31 g ai/ha, 13 to 15 days): 40
- Plant response rating, Velvetleaf (velvetleaf; 62 g ai/ha): 40
- Plant response rating (0 to 100), Galium (galium; 125 g ai/ha): 95
- Plant response rating (0 to 100), Galium (galium; 250 g ai/ha): 95
- Plant response rating, Galium (galium; 31 g ai/ha, 13 to 15 days): 75
- Plant response rating, Galium (galium; 62 g ai/ha): 80
- Plant response rating, Wheat (wheat [6]; [11]): 20
- Wheat plant response rating (wheat [6]; [12]): 60
- Plant response rating, Ducksalad (Heteranthera limosa): 75
- Plant response rating, Barnyardgrass (barnyardgrass [7]; [11]): 80
- Barnyardgrass plant response rating (barnyardgrass [7]; [12]): 100
- Plant response rating (0 to 100), Kochia (kochia; 125 g ai/ha): 95
- Plant response rating (0 to 100), Kochia (kochia; 250 g ai/ha): 95
- Plant response rating, Kochia (kochia; 31 g ai/ha, 13 to 15 days): 90
- Plant response rating, Kochia (kochia; 62 g ai/ha): 90
- Plant response rating, Barnyardgrass (barnyardgrass [8]; [11]): 90
- Plant response rating, Barnyardgrass (barnyardgrass [8]; [13]): 100
- Plant response rating, Corn (corn [9]; [11]): 50
- Plant response rating, Corn (corn [9]; [13]): 60
- Plant response rating, Foxtail, Giant (giant foxtail; 125 g ai/ha): 90
- Plant response rating, Foxtail, Giant (giant foxtail; 500 g ai/ha): 100
- Plant response rating (0 to 100), Barnyardgrass (barnyardgrass [10]; 125 g ai/ha): 10
- Plant response rating (0 to 100), Barnyardgrass (barnyardgrass [10]; 250 g ai/ha): 40
- Plant response rating, Barnyardgrass (barnyardgrass [10]; 31 g ai/ha, 13 to 15 days): 5
- Plant response rating, Barnyardgrass (barnyardgrass [10]; 62 g ai/ha): 5
